Tests used:
[1] = Body weight in the IA2BC study; type: in vivo, mice; details: group 4F (MEAI mid dose, 60 mg/kg), only during Day 40 of cycle 1; *p<0.05
Method: Body weight was recorded upon arrival, before study initiation, three times a week thereafter and at termination.
Body weight (BW) was monitored every other day in all animals of all groups.

C57BL/6 mice [2] = test: Mortality and gross pathology in the IA2BC study; type: in vivo
Method: Morbidity and mortality checks were performed daily. Animals that were sacrificed during the study were considered for the interpretation of study results as animals that died during the study. In case of mortality before the study's scheduled termination, gross pathology evaluation was performed as close as possible to the time of death. The time of death was recorded as precisely as possible.
Observations documented any irregularities, such as changes in local injection site, skin, fur, eyes, mucous membranes, respiratory, occurrence of secretions and excretions (e.g. diarrhea) and autonomic activity (e.g. lacrimation, salivation, piloerection, pupil size, unusual respiratory pattern). Changes in gait, posture, and response to handling, as the presence of bizarre behavior, tremors, convulsions, sleep, and coma were also included. All observed abnormalities, toxic signs, moribund condition, and pre-terminal deaths were recorded.
The animals were evaluated for macroscopic findings during gross pathology.

C57BL/6 mice [3] = test: Alcohol preference (alcohol / total fluids) in the IA2BC study; type: in vivo
Method: The mean alcohol preference, which was defined as the ratio between alcohol weight (g/kg/24 h) divided by the total weight of water and alcohol consumed by the animals (g/kg/24 h) was evaluated.

C57BL/6 mice [4] = test: Intermittent access to 20% Alcohol in two-bottle choice (IA2BC) model: alcohol consumption; type: in vivo
Method: The principle of the study is based on Intermittent access to 20% Alcohol in two-bottle choice (IA2BC) model in mice. The mice were provided during the whole Study with two bottles: one bottle of water, and another bottle of 20% ethanol solution, which were removed and replaced after 24 hours with another buttle of water, for additional 24 hours. In total, the mice were subjected to 20% ethanol 24 hours, three times a week, for seven-eight weeks (21-22 alcohol consumption days).
The alcohol consumption was measured after each 24 of alcohol exposure (by weighing the alcohol buttle before and after). Following four weeks of intermittent access to 20% alcohol the mice were allocated to groups according to their alcohol consumption, to achieve balanced groups. To examine the effect of treatment in reducing alcohol consumption, mice were treated with the Test Item/s or Vehicle daily during weeks 6-7/8. […]
Animal alcohol and water consumption was recorded for each cage and was done for a 24±2 hours period starting at Day 1, three times a week thereafter until the end of the Study.
Intermittent access to 20% Alcohol in two-bottle choice (IA2BC) model in mice. The mice were subjected to 20% ethanol 24 hours, three times a week, for five weeks (15 alcohol consumption days), and the alcohol consumption was measured by weight. […]

C57BL/6 mice [5] = test: Food consumption in the IA2BC study; type: in vivo; details: cycle 2, Group 7F, MEAI/PEA 0/25 mg/kg
Method: Animal food consumption was performed twice before first dosing (during alcohol addition, and without alcohol addition), during dosing period at each alcohol addition (six times in total) and before termination (without alcohol addition).
The Food consumption was recorded in each cage for a […] period. Determinations of food consumption (calculated value) were based on a provided diet placed in hoppers and the remaining unused diet weighed.
Food consumption was monitored per each mouse in each individual cage for 24 h during Alcohol addition time, by measuring the weight of food before and after 24 hours. The consumption of food was measured during all MEAI treatment days, in both cycles. The mean value for each group during each consumption day was calculated as fold change from baseline (i.e. food consumption measured before MEAI treatment), per each animal. The fold change values of each MEAI/PEA treated group was compared to the vehicle groups (1F/6F/7F) and statistical analysis was performed.

Structure (SMILES)	body weight compared to control group [1]	mortality (C57BL/6 mice [2]; high doses treated groups, after prolonged alcohol consumption)	gross pathology findings in liver, kidneys, heart and spleen (bright color and/or enlarged) (C57BL/6 mice [2]; observed in all groups including vehicle treated)	reduction of alcohol preference compared to control, significance (C57BL/6 mice [3]; cycle 1, 100 mg/kg MEAI)	mean alcohol preference compared to control groups (C57BL/6 mice [3]; cycle 1, MEAI 20-100 mg/kg)	reducing alcohol consumption of the treated animals (C57BL/6 mice [4]; MEAI 20-100 mg/kg PO daily, weeks 6-7/8, treated vs control)	alcohol consumption during treatment compared to consumption before treatment (C57BL/6 mice [4]; cycle 1, MEAI at a dose of 40 mg/kg and at higher doses PO, mean of six alcohol days, ** p<0.01, *** p<0.001)	reduction of food consumption compared to own baseline (C57BL/6 mice [5]) [%]
COc1ccc2c(c1)CC(N)C2 (centres unmarked) [MEAI, 5-methoxy-2-aminoindan]	significantly lower	four	most likely related to the alcohol consumption and not to the MEAI treatment	statistically significant	reduced in a dose dependent manner	significant dose dependent effect	significantly reduced	
CCCCCCCCCCCCCCCC(=O)NCCO [PEA, N-(2-hydroxyethyl) hexadecanamide]								22

Source: patent US20250302773A1, “CO[…] AND N-ACYLETH[…] USES THEREOF” (CLEARMIND MEDICINE INC., priority 2022, published 2025)
